Calls of active or inactive are those of the source. The calls are words filed in the database; no cut-off is given here.
Legend:
Homo sapiens = species: Homo sapiens; test: Induction of adipogenesis in human bone marrow-derived mesenchymal stem cells assessed as increase in adiponectin production at 30 uM measured on day 5 in presence of IDX by ELISA; format: functional
[1] = molecular target: T1, Peroxisome proliferator-activated receptor gamma (Homo sapiens, UniProt P37231); test: (§1) Binding affinity to PPARgamma (unknown origin) by TR-FRET assay
T1 sequence (P37231 whole entry): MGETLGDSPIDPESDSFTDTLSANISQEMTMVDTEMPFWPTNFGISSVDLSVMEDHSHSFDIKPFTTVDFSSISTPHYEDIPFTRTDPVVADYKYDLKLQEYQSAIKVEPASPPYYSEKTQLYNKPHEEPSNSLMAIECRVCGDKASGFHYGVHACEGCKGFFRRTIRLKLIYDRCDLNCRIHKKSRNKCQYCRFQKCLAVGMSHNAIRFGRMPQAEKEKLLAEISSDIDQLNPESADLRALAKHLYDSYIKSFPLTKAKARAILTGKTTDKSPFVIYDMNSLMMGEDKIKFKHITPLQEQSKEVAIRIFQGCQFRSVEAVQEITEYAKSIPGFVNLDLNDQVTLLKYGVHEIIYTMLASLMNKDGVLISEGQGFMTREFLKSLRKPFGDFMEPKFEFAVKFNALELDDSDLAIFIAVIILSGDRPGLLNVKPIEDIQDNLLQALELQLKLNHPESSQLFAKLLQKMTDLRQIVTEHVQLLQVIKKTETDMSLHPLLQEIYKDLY

cells = settings: Homo sapiens, 120 h
Description: Induction of adipogenesis in human bone marrow-derived mesenchymal stem cells assessed as increase in adiponectin production measured on day 5 in presence of IDX by ELISA

[2] = Induction of adipogenesis in human bone marrow-derived mesenchymal stem cells assessed as increase in adiponectin production at 30 uM measured on day 5 in presence of IDX by ELISA relative to control; format: functional
[3] = Induction of adipogenesis in human bone marrow-derived mesenchymal stem cells assessed as increase in adiponectin production at 60 uM measured on day 5 in presence of IDX by ELISA relative to pioglitazone; format: functional; settings: 120 h
[4] = molecular target: T2, Peroxisome proliferator-activated receptor gamma (Homo sapiens) (UniProt P37231); test: Inhibition of labeled ligand binding to PPARgamma (unknown origin) at 60 uM by TR-FRET assay relative to control
T2 sequence (whole entry): T1 sequence (P37231 whole entry)

[5] = molecular target: T3, Glucocorticoid receptor (Homo sapiens) (UniProt P04150); test: Binding affinity to GR (unknown origin) at 30 uM by TR-FRET assay
T3 sequence (whole entry): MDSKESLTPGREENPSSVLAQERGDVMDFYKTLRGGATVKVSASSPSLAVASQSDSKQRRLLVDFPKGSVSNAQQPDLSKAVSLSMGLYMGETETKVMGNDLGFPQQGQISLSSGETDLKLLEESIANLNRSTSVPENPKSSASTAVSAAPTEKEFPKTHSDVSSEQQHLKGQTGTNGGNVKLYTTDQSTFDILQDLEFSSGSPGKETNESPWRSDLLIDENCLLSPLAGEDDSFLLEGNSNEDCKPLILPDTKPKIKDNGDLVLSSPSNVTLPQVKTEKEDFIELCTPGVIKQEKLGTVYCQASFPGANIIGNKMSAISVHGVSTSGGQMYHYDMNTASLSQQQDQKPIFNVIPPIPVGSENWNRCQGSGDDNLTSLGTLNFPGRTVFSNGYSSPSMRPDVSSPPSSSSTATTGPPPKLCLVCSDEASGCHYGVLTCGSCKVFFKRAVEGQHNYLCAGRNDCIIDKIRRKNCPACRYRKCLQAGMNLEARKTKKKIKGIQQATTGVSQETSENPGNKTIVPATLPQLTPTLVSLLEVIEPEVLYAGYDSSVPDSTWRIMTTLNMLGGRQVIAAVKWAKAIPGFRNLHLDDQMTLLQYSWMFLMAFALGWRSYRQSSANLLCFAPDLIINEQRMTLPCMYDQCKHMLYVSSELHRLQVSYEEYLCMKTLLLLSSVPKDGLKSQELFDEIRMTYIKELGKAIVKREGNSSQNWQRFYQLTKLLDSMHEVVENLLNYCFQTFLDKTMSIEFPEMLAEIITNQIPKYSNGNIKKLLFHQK

[6] = molecular target: T2, Peroxisome proliferator-activated receptor gamma (Homo sapiens); test: as §1
[7] = molecular target: T2, Peroxisome proliferator-activated receptor gamma (Homo sapiens); test: Inhibition of labeled ligand binding to PPARgamma (unknown origin) at 30 uM by TR-FRET assay relative to control
[8] = molecular target: T4, Oxysterols receptor LXR-alpha (Homo sapiens) (UniProt Q13133); test: Binding affinity to LXRalpha (unknown origin) at 30 uM by TR-FRET assay
T4 sequence (whole entry): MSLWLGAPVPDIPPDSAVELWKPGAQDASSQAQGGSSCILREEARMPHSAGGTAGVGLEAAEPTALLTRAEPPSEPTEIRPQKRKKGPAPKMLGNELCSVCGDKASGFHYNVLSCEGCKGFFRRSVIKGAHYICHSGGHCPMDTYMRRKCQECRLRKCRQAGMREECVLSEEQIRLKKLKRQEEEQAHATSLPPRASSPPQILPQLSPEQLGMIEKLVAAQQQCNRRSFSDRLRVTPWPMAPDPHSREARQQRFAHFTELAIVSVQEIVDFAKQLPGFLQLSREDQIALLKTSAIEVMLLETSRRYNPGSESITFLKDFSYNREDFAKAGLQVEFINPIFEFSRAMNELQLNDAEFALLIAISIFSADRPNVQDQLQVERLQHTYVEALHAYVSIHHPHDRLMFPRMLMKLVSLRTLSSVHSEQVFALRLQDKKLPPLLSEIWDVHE

[9] = molecular target: T5, Peroxisome proliferator-activated receptor delta (Homo sapiens) (UniProt Q03181); test: Binding affinity to PPARdelta (unknown origin) at 30 uM by TR-FRET assay
T5 sequence (whole entry): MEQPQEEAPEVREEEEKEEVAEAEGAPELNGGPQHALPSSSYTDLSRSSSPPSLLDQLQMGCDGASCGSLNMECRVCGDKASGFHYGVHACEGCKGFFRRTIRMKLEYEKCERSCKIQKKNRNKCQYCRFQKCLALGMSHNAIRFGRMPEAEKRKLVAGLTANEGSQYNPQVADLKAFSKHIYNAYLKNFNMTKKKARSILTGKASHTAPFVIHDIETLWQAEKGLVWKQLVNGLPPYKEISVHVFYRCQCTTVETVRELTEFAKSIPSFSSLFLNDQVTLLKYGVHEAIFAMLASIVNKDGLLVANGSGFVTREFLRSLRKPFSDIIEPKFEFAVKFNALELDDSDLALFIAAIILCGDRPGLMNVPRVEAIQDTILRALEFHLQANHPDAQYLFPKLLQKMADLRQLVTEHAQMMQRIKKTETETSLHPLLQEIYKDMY

[10] = molecular target: T6, Peroxisome proliferator-activated receptor alpha (Homo sapiens) (UniProt Q07869); test: Binding affinity to PPARalpha (unknown origin) at 30 uM by TR-FRET assay
T6 sequence (whole entry): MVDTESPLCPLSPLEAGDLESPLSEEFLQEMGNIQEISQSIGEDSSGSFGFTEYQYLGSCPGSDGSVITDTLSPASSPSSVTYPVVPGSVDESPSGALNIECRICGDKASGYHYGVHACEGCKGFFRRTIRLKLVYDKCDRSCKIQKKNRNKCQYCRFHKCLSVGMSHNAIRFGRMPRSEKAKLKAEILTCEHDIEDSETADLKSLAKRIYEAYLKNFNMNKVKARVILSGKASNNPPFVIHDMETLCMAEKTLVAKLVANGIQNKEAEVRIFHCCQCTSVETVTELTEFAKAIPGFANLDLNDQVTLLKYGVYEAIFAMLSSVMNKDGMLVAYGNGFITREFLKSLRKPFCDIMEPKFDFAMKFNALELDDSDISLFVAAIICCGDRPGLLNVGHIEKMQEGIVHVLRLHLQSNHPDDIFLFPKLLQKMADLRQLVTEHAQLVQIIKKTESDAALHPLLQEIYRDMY

Row | EC50 (cells) | SMILES | Activity (Homo sapiens) | other results
1 |  | COc1ccc2oc(CCc3ccccc3)cc(=O)c2c1O | Active | 
2 |  | O=c1cc(CCc2ccccc2)oc2cccc(O)c12 | Active | 
3 |  | O=c1cc(CCc2ccccc2)oc2c(O)cccc12 | inactive | 
4 |  | O=c1cc(CCc2ccccc2)oc2c(Cl)cc(O)cc12 | Active | 
5 |  | O=C1C=C(CCc2ccccc2)OC2C1[C@@H]1O[C@@H]1[C@H](O)[C@H]2O (relative stereo) | Active | 
6 |  | O=c1cc(CCc2ccccc2O)oc2ccccc12 | inactive | 
7 | 2.95 µM | COc1ccc(Cl)cc1C(=O)NCCc1ccc(S(=O)(=O)NC(=O)NC2CCCCC2)cc1 [GLYBURIDE] |  | Ki [1]: 0.66 µM
8 | > 60 µM | O=c1cc(CCc2ccccc2)oc2ccc(O)c(O)c12 | Active | fold change (FC) [2]: 1.97; Emax at 60 µM [3]: 48%; inhibition [4]: 41.1%
9 | 20.3 µM | COc1ccc2c(=O)cc(CCc3ccccc3)oc2c1 | Active | Activity [5]: inactive; Ki [1]: 14.9 µM; Activity [6]: Dose-dependent effect; inhibition [7]: 50.3%; Activity [8]: inactive; Activity [9]: inactive; Activity [10]: inactive
